Data from patent US9790169B2, “IDO inhibitors” (BRISTOL-MYERS SQUIBB COMPANY, priority 2015, dated 2017).

Target: human IDO1 (Homo sapiens, UniProt P14902)
Assay: Assessment of human IDO-1 inhibitory activity in Hela cells (Interferon-gamma stimulated HeLa cells, Ehrlich reagent, absorbance 490 nm)
Format: cell-based
Design: endogenous in cells; host or cells: HeLa cells stimulated with interferon-gamma
Details: Hela Human IDO-1 cellular assay
Outline: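 HeLa cells pre-incubated with compound 1 h at 37 °C, then stimulated with human IFN-γ (10 ng/ml final) or murine IFN-γ (5 ng/ml final) for 18 h. Kynurenine read with Ehrlich reagent at 490 nm after TCA (3%) and 50 °C treatment; IC50 normalized to unstimulated (100%) and IFN-γ-only (0%) wells.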

Chain of human IDO1 (P14902 whole entry): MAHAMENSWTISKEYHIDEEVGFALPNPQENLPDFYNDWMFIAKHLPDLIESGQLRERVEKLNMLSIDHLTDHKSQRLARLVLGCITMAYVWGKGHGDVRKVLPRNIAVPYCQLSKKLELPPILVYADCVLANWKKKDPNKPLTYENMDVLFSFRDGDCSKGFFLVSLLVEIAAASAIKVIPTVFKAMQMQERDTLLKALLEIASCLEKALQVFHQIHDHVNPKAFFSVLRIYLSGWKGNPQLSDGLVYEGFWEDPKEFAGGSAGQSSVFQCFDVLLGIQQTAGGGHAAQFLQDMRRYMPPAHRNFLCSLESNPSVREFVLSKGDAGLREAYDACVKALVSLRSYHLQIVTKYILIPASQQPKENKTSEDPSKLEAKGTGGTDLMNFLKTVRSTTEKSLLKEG

| SMILES | IC50 [µM] |
| --- | --- |
| CCOc1ncc(Nc2cc(C(CC)CC(=O)O)ccc2N2CCC(C)CC2)cn1 (single isomer, unassigned) [Example 43, 3-(3-((2-ethoxypyrimidin-5-yl)amino)-4-(4-methylpiperidin-1-yl)phenyl)pentanoic acid] | > 0.05 |
| COCC(CC(=O)O)c1ccc(N2C[C@@H](C)O[C@@H](C)C2)c(NC(=O)Nc2ccc(Cl)cc2F)c1 (single isomer, unassigned) [Example 606] | > 0.05 |
| CCN(c1ccc([C@H](COC)CC(=O)O)cc1NC(=O)Nc1ccc(Cl)cc1Cl)C1CCOCC1 (single isomer, unassigned) [Example 441] | > 0.05 |
| CCN(c1ccc([C@@H](COC)CC(=O)O)cc1Nc1ccc(C#N)c(C)n1)C1CCOCC1 (single isomer, unassigned) [Example 382] | < 0.05 |
| CCOc1cc(Nc2cc([C@@H](COC)CC(=O)O)ccc2N(CC)C2CCOCC2)ccc1C#N (single isomer, unassigned) [Example 370] | < 0.05 |
| CCCN(c1ccc([C@H](CC)CC(=O)O)cc1NC(=O)Nc1ccc(Cl)cc1F)C1CCOCC1 (single isomer, unassigned) [Example 555] | < 0.005 |
| CC[C@@H](CC(=O)O)c1ccc(N(CC)C2CCOCC2)c(Nc2ccc(C#N)cn2)c1 (single isomer, unassigned) [Example 461] | < 0.005 |
| CCN(c1ccc([C@@H](COC)CC(=O)O)cc1Nc1ccc(C#N)c(OCC(F)(F)F)c1)C1CCOCC1 (single isomer, unassigned) [Example 372] | < 0.05 |
| CCOc1ncc(Nc2cc(C(CC)CC(=O)O)ccc2N2CCN(C(=O)OC(C)(C)C)CC2)cn1 (single isomer, unassigned) [Example 675, 3-(4-(4-(tert-Butoxycarbonyl)piperazin-1-yl)-3-((2-ethoxypyrimidin-5-yl)amino)phenyl)pentanoic acid] | > 0.05 |
| COCC(CC(=O)O)c1ccc(N(C)C2CCOCC2)c(Nc2ccc(C#N)c(F)c2)c1 (single isomer, unassigned) [Example 875, 3-(3-((4-cyano-3-fluorophenyl)amino)-4-(methyl(tetrahydro-2H-pyran-4-yl)amino)phenyl)-4-methoxybutanoic acid] | < 0.05 |
| CCCN(c1ccc([C@H](CC)CC(=O)O)cc1Nc1cnc(OCC2CC2)nc1)C1CCOCC1 (single isomer, unassigned) [Example 554] | < 0.005 |
| CCC(CC(=O)O)c1cc(Nc2cnc(OC)nc2)c(N(CC)C2CCOCC2)cc1F (single isomer, unassigned) [Example 859, 3-(4-(ethyl (tetrahydro-2H-pyran-4-yl)amino)-2-fluoro-5-((2-methoxy-pyrimidin-5-yl)amino)phenyl) pentanoic acid] | < 0.005 |
| CCN(c1c(F)cc(C(COC)CC(=O)O)cc1Nc1ccc(C#N)cc1)C1CCOCC1 (single isomer, unassigned) [Example 918, 3-(3-((4-Cyanophenyl)amino)-4-(ethyl(tetrahydro-2H-pyran-4-yl)amino)-5-fluorophenyl)-4-methoxybutanoic acid] | < 0.05 |
| CCN(c1ccc([C@H](CNS(=O)(=O)C(F)(F)F)COC)cc1Nc1ccc(C#N)cc1)C1CCOCC1 [Example 1342, (R)-N-(2-(3-((4-cyanophenyl)amino)-4-(ethyl(tetrahydro-2H-pyran-4-yl)amino)phenyl)-3-methoxypropyl)-1,1,1-trifluoromethanesulfonamide] | < 0.05 |
| CCCN(c1ccc(C(COC)CC(=O)O)cc1Nc1ccc2c(c1)OC(F)(F)O2)C1CCOCC1 (single isomer, unassigned) [Example 571, 3-(3-((2,2-difluorobenzo[d][1,3]dioxol-5-yl)amino)-4-(propyl (tetrahydro-2H-pyran-4-yl)amino)phenyl)-4-methoxybutanoic acid] | < 0.005 |
| CCCN(c1ccc(C(CC)CC(=O)O)cc1NC(=O)Nc1ccc(C)cc1)C1CCOCC1 (single isomer, unassigned) [Example 557 Enantiomer 2, 3-(4-(Propyl(tetrahydro-2H-pyran-4-yl)amino)-3-(3-(p-tolyl)ureido)phenyl)pentanoic acid] | < 0.005 |
| CC[C@@H](CC(=O)O)c1ccc(N(CC2CC2)CC(C)(C)O)c(Nc2ccc(F)cc2)c1 (single isomer, unassigned) [Example 269] | < 0.05 |
| CCOc1ncc(Nc2cc(C(CC)CC(=O)O)ccc2N(CC)C2CCN(Cc3ccccc3)CC2)cn1 (single isomer, unassigned) [Example 939, 3-(4-((1-Benzylpiperidin-4-yl)(ethyl)amino)-3-((2-ethoxypyrimidin-5-yl)amino)phenyl)pentanoic acid] | < 0.05 |

The next lines start with the values.

| IC50 [µM] | SMILES |
| --- | --- |
| > 0.05 | COCC(CC(=O)O)c1ccc(N2C[C@@H]3C[C@H]2CN3C(=O)OC(C)(C)C)c(Nc2ccc(C#N)cc2)c1 (single isomer, unassigned) [Example 451 Diastereomer 2] |
| < 0.005 | CCC(CC(=O)O)c1ccc(N2C[C@@H]3C[C@H]2CN3C(=O)OC(C)(C)C)c(Nc2ccccc2)c1 (single isomer, unassigned) [Example 444] |
| < 0.05 | COCC(CC(=O)O)c1ccc(N2CCOC[C@@H]2C(C)C)c(Nc2ccc(Cl)cc2)c1 (single isomer, unassigned) [Example 930] |
| > 0.05 | C[C@@H]1CN(c2ccc(C(CC(=O)O)C3CC3)cc2Nc2ccc(C#N)cc2)C[C@H](C)O1 (single isomer, unassigned) [Example 247] |
| < 0.05 | CCC(CC(=O)O)c1ccc(N2CCOCC2)c(NC(=O)Nc2ccc(C)cc2)c1 (single isomer, unassigned) [Example 8 Enantiomer 2, 3-(4-Morpholino-3-(3-(p-tolyl)ureido)phenyl)pentanoic acid] |
| > 0.05 | CCC(CC(=O)O)c1ccc(N2CCOCC2)c(Nc2ccc(C#N)cc2)c1 (single isomer, unassigned) [Example 6 Enantiomer 1, 3-(3-((4-Cyanophenyl)amino)-4-morpholinophenyl)pentanoic acid] |
| > 0.05 | COCC(CC(=O)O)c1ccc(NC2CCOCC2)c(Nc2ccc(C#N)cc2)c1 (single isomer, unassigned) [Example 928 E1, 3-(3-((4-Cyanophenyl)amino)-4-((tetrahydro-2H-pyran-4-yl)amino)phenyl)-4-methoxybutanoic acid] |
| > 0.05 | CCC(CC(=O)O)c1ccc(N2CCN(C(=O)OC)CC2)c(Nc2ccc(C#N)cc2)c1 (single isomer, unassigned) [Example 668 Enantiomer 1, 3-(3-((4-Cyanophenyl)amino)-4-(4-(methoxycarbonyl)piperazin-1-yl)phenyl)pentanoic acid] |
| < 0.005 | COCC(CC(=O)O)c1ccc(N2CCOC[C@H]2C(C)C)c(Nc2ccc(C#N)cc2)c1 (single isomer, unassigned) [Example 912] |
| > 0.05 | COCC(CC(=O)O)c1ccc(N2CCOC(C)C2)c(Nc2ccc(C#N)cc2)c1 (single isomer, unassigned) [Example 1312, 3-(3-((4-cyanophenyl)amino)-4-(2-methylmorpholino)phenyl)-4-methoxybutanoic acid] |
| > 0.05 | COCC(CC(=O)O)c1ccc(N2CCOC[C@@H]2C(C)C)c(Nc2ccc(C#N)cc2)c1 (single isomer, unassigned) [Example 933] |
